Test results published in patent publication US20180284095A1, “BIOMARKERS ASSOCIATED WITH LSD1 INHIBITORS AND USES THEREOF” (Oryzon Genomics, S.A., priority 2015, published 2018).

What was measured:
[1] = target: T1, Human recombinant LSD1 protein (Homo sapiens, UniProt O60341); assay: LSD1 in vitro biochemical assay (Amplex Red, di-methylated H3-K4 peptide)
T1 construct: amino acids 158-end with N-terminal GST tag; purchased BPS Bioscience Inc 50100
Text: The inhibitory activity of a compound of interest against LSD1 can be tested using the method described below: Human recombinant LSD1 protein from BPS Bioscience Inc (catalog reference number 50100: human recombinant LSD1, GenBank accession no. NM_015013, amino acids 158-end with N-terminal GST tag, MW: 103 kDa) was used. In order to monitor LSD1 enzymatic activity and/or its inhibition rate by a test compound, di-methylated H3-K4 peptide (Anaspec) was chosen as a substrate. The demethylase activity was estimated, under aerobic conditions, by measuring the release of H2O2 produced during the catalytic process, using the Amplex® Red hydrogen peroxide/peroxidase assay kit (Invitrogen).
Briefly, a fixed amount of LSD1 was incubated on ice for 15 minutes, in the absence and/or in the presence of at least eight 3-fold serial dilutions of the respective inhibitor (e.g., from 0 to 75 μM, depending on the inhibitor strength). Tranylcypromine (Biomol International) was used as a control for inhibition. Within the experiment, each concentration of inhibitor was tested in duplicate. After leaving the enzyme interacting with the inhibitor, KM of di-methylated H3-K4 peptide was added to each reaction and the experiment was left for 30 minutes at 37° C. in the dark. The enzymatic reactions were set up in a 50 mM sodium phosphate, pH 7.4 buffer. At the end of the incubation, Amplex® Red reagent and horseradish peroxidase (HPR) solution were added to the reaction according to the recommendations provided by the supplier (Invitrogen), and left to incubate for 5 extra minutes at room temperature in the dark. A 1 μM H2O2 solution was used as a control of the kit efficiency. The conversion of the Amplex® Red reagent to resorufin due to the presence of H2O2 in the assay, was monitored by fluorescence (excitation at 540 nm, emission at 590 nm) using a microplate reader (Infinite 200, Tecan). Arbitrary units were used to measure level of H2O2 produced in the absence and/or in the presence of inhibitor. The maximum demethylase activity of LSD1 was obtained in the absence of inhibitor and corrected for background fluorescence in the absence of LSD1. The IC50 value of each inhibitor was calculated with GraphPad Prism Software.

[2] = target: T2, Human recombinant monoamine oxidase MAO-A (Homo sapiens, UniProt P21397); assay: MAO-A fluorescence-based kynuramine assay; type: biochemical
T2 construct: purchased Sigma Aldrich
T2 sequence (P21397 1-527): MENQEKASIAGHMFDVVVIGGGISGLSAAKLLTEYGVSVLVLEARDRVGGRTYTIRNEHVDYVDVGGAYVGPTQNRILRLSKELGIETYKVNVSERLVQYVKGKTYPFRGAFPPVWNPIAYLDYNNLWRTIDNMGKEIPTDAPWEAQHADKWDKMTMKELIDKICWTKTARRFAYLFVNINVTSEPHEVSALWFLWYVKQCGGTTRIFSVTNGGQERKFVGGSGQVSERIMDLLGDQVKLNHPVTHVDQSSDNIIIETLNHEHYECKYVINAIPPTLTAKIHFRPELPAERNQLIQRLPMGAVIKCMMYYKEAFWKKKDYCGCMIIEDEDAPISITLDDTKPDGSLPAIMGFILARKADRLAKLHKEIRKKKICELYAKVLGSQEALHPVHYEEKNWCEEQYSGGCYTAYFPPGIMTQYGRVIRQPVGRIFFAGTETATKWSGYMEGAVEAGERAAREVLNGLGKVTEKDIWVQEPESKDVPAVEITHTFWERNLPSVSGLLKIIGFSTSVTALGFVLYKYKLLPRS
Text: LSD1 has a fair degree of structural similarity and amino acid identity/homology with the flavin-dependent amine oxidases monoamine oxidase A (MAO-A) and B (MAO-B). To determine the level of selectivity of a LSD1 inhibitor versus MAO-A and MAO-B, the inhibitory activity of a compound of interest against MAO-A and MAO-B can be tested using the method described below: Human recombinant monoamine oxidase proteins MAO-A and MAO-B were purchased from Sigma Aldrich.
MAOs catalyze the oxidative deamination of primary, secondary and tertiary amines. In order to monitor MAO enzymatic activities and/or their inhibition rate by inhibitor(s) of interest, a fluorescence-based (inhibitor)-screening assay was set up. 3-(2-Aminophenyl)-3-oxopropanamine (kynuramine dihydrobromide, Sigma Aldrich), a non fluorescent compound was chosen as a substrate. Kynuramine is a non-specific substrate for both MAO-A and MAO-B activities. While undergoing oxidative deamination by MAO activities, kynuramine is converted into 4-hydroxyquinoline (4-HQ), a resulting fluorescent product.
The monoamine oxidase activity was estimated by measuring the conversion of kynuramine into 4-hydroxyquinoline. Assays were conducted in 96-well black plates with clear bottom (Corning) in a final volume of 100 μL. The assay buffer was 100 mM HEPES, pH 7.5. Each experiment was performed in duplicate within the same experiment.
Briefly, a fixed amount of MAO was incubated on ice for 15 minutes in the reaction buffer, in the absence and/or in the presence of at least eight 3-fold serial dilutions each. Clorgyline and Deprenyl (Sigma Aldrich) was used as a control for specific inhibition of MAO-A and MAO-B respectively.
After leaving the enzyme(s) interacting with the inhibitor, KM of kynuramine was added to each reaction for MAO-B and MAO-A assay respectively, and the reaction was left for 1 hour at 37° C. in the dark. The oxidative deamination of the substrate was stopped by adding 50 μL of NaOH 2N. The conversion of kynuramine to 4-hydroxyquinoline, was monitored by fluorescence (excitation at 320 nm, emission at 360 nm) using a microplate reader (Infinite 200, Tecan). Arbitrary units were used to measure levels of fluorescence produced in the absence and/or in the presence of inhibitor.
The maximum of oxidative deamination activity was obtained by measuring the amount of 4-hydroxyquinoline formed from kynuramine deamination in the absence of inhibitor and corrected for background fluorescence in the absence of MAO enzymes. The IC50 values of each inhibitor were calculated with GraphPad Prism Software.

IC50 [2] [µM] | Compound | IC50 [1] [µM]
2.3 | NC(=O)CN[C@H]1C[C@@H]1c1ccc(OCc2ccccc2)cc1 (racemic) [Compound 3, 2-(((trans)-2-(4-(benzyloxy)phenyl)cyclopropyl)amino)acetamide] | 0.16
4.6 | CN1CCN(C(=O)CN[C@H]2C[C@@H]2c2ccc(OCc3ccccc3)cc2)CC1 (racemic) [Compound 4, 2-(((trans)-2-(4-(benzyloxy)phenyl)cyclopropyl)amino)-1-(4-methylpiperazin-1-yl)ethan-1-one] | –
3.4 | N[C@H]1CCN(CCN[C@H]2C[C@@H]2c2ccc(-c3cccc(C(F)(F)F)c3)cc2)C1 (racemic) [Compound 5, (S)-1-(2-(((trans)-2-(3′-(trifluoromethyl)-[1,1′-biphenyl]-4-yl)cyclopropyl)amino)ethyl)pyrrolidin-3-amine] | 0.06

Compound | IC50 [2] [µM] | IC50 [1] [µM]
(+) 5-((((trans)-2-(4-(benzyloxy)phenyl)cyclopropyl)amino)methyl)-1,3,4-oxadiazol-2-amine [Compound 2] | 3.8 | 2.3
(−) 5-((((trans)-2-(4-(benzyloxy)phenyl)cyclopropyl)amino)methyl)-1,3,4-oxadiazol-2-amine [Compound 1] | 5.3 | 0.09
